The subject of assay [1] is muscarinic cholinergic receptor. The class given is cell-based, chick.
The subject of the next assay is muscarinic binding sites. Also on record: species or system chick.

“And” between values parts separate entries of the source, which are not always exact repeats. Equal entries are not always repeated.

As to `O=C1CC[C@](c2ccccc2)(C2CCN(Cc3ccccc3)CC2)C(=O)N1` [Levetimide, levetimide], the type of antagonism result in assay [1] is “reversible competitive antagonists”. Further, the “nH, phenomenological cooperativity model (Hill coefficient)” value (shortened to “nH, phenomenological cooperativity model”) with muscarinic binding sites is recorded as 0.76.

Turning to `CC[C@@H]1C(=O)OC[C@@H]1Cc1cncn1C` [Pilocarpine, pilocarpine], in assay [1], the “agonistic effect on Ca2+ mobilization” value is “No reaction” and the type of antagonism result is “reversible competitive antagonists”. In addition, the “nH, phenomenological cooperativity model” value with muscarinic binding sites stood at 0.68.

Consider `CN1CCN(CC(=O)N2c3ccccc3C(=O)Nc3cccnc32)CC1` [Pirenzepine, pirenzepine], for which the type of antagonism result in assay [1] is listed as “reversible competitive antagonists”. Moreover, the “nH, phenomenological cooperativity model” value with muscarinic binding sites was 1.31.

As to `CC(C[N+](C)(C)C)OC(N)=O` (centres unmarked) [Bethanechol, bethanechol], in assay [1], the “Effect relative to acetylcholine” value turned out to be 23%, the “agonistic effect on Ca2+ mobilization” value is listed as “partial agonist” and the type of antagonism entry is “reversible competitive antagonists”. In the assay on muscarinic binding sites, the “RH, two-sites model” value was found to be 9.1 pmol/L; the “RL, two-sites model” value is 19.9 pmol/L; the “nH, phenomenological cooperativity model” value worked out at 0.65.

For the compound `C[N+](C)(C)CCOC(N)=O` [Carbachol, carbachol], in assay [1], the “Effect relative to acetylcholine” value is recorded as 92% and the “agonistic effect on Ca2+ mobilization” value is reported as “full agonists”. Also, in the assay on muscarinic binding sites, the “RH, two-sites model” value is 14.6 pmol/L; the “RL, two-sites model” value stood at 18.4 pmol/L; the “nH, phenomenological cooperativity model” value is on record as 0.41.

Consider `O=C1CC[C@@](c2ccccc2)(C2CCN(Cc3ccccc3)CC2)C(=O)N1` [Dexetimide, dexetimide], for which the type of antagonism result in assay [1] is recorded as “irreversible competitive antagonists”. For the same compound, the “nH, phenomenological cooperativity model” value with muscarinic binding sites is 0.63.

Regarding `CN1[C@@H]2CC[C@H]1C[C@@H](OC(=O)C(CO)c1ccccc1)C2` (some centres unmarked) [Atropine, atropine], the “nH, phenomenological cooperativity model” value with muscarinic binding sites was 0.79.

On to `O=C1CCCN1CC#CCN1CCCC1` [Oxotremorine, oxotremorine], for which, in assay [1], the “agonistic effect on Ca2+ mobilization” value is reported as “No reaction” and the type of antagonism result is “reversible competitive antagonists”. The “nH, phenomenological cooperativity model” value in the assay on muscarinic binding sites amounted to 0.95.

For `CC(=O)OCC[N+](C)(C)C` [Acetylcholine, acetylcholine], in assay [1], the “Effect relative to acetylcholine” value was determined as 100% and the “agonistic effect on Ca2+ mobilization” value was “full agonists”. Also, in the assay on muscarinic binding sites, the “RH, two-sites model” value was 15.3 pmol/L and 20.9 pmol/L; the “RL, two-sites model” value is 13.8 pmol/L and 19.4 pmol/L; the “nH, phenomenological cooperativity model” value is 0.41 and 0.39.
